Patent US10538491B2, “4,5-substituted picolinamide and picolinonitrile metabotropic glutamate receptor 2 negative allosteric modulators” (Vanderbilt University, priority 2015, dated 2020)

Biological target: rat mGlu2 (Rattus norvegicus (Rat), UniProt P31421)
Assay: mGlu2 Ca2+ flux assay
Type: cell-based
Conditions: for IC50: Gα15 HEK293 cells stably expressing rat mGlu2, glutamate EC80, >10,000 = no plateau, >30,000 = no measurable activity; for remaining activity at 30 µM: read-out: rat mGlu2 Glu max
Experimental: Gα15 HEK293 cells stably expressing rat mGlu2 were plated in black-walled, clear-bottomed, poly-D-lysine coated 384-well plates in 20 μL of assay medium (DMEM containing 10% dialyzed FBS, 20 mM HEPES, and 1 mM sodium pyruvate) at a density of 12K cells/well. The cells were grown overnight at 37° C. in the presence of 5% CO2. The next day, medium was removed and the cells incubated with 20 μL of 2.3 μM Fluo-4, AM prepared as a 2.3 mM stock in DMSO and mixed in a 1:1 ratio with 10% (w/v) pluronic acid F-127 and diluted in assay buffer (Hank's balanced salt solution, 20 mM HEPES, and 2.5 mM probenecid) for 45 minutes at 37° C. Dye was removed, 20 μL of assay buffer was added, and the plate was incubated for 5 minutes at room temperature.
Ca^2+ flux was measured using the Functional Drug Screening System (FDSS7000, Hamamatsu, Japan). After establishment of a fluorescence baseline for about 3 seconds, the compounds of the present invention were added to the cells, and the response in cells was measured. 2.3 minutes later an EC20 concentration of the mGlu2 receptor agonist glutamate was added to the cells, and the response of the cells was measured for 1.9 minutes; an EC80 concentration of agonist was added and readings taken for an additional 1.7 minutes. All test compounds were dissolved and diluted to a concentration of 10 mM in 100% DMSO. Compounds were then serially diluted 1:3 in DMSO into 10 point concentration response curves, transferred to daughter plates, and further diluted into assay buffer to a 2× stock. Calcium fluorescence measures were recorded as fold over basal fluorescence; raw data was then normalized to the maximal response to glutamate. Antagonism of the agonist response of the mGlu2 receptor in the present invention was observed as a decrease in response to nearly maximal concentrations of glutamate in the presence of compound compared to the response to glutamate in the absence of compound.
The raw data file containing all time points was used as the data source in the analysis template. This was saved by the FDSS as a tab-delimited text file. Data were normalized using a static ratio function (F/F0) for each measurement of the total 360 values per well divided by each well's initial value. Data were then reduced to peak amplitudes (Max−Initial Min) using a time range that starts approximately 3 seconds prior to the glutamate EC80 addition and continues for approximately 90 seconds. This is sufficient time to capture the peak amplitude of the cellular calcium response. Individual amplitudes were expressed as % ECMax by multiplying each amplitude by 100 and then dividing the product by the mean of the amplitudes derived from the glutamate ECMax-treated wells. IC50 values for test compounds were generated by fitting the normalized values versus the log of the test compound concentration (in mol/L) using a 4 parameter logistic equation where none of the parameters were fixed. Each of the three values collected at each concentration of test compound were weighted evenly.
For NAMs, potency (IC50) and maximum response (% Glu Max), i.e. the amplitude of response in the presence of 30 μM test compound as a percentage of the maximal response to glutamate, are reported. […] Compounds with no measurable activity are designated as “>30,000 nM” since the top concentration of compound tested in the assay is 30 μM.

[1] = amplitude of response in the presence of 30 μM test compound as percentage of maximal response to glutamate

Chain of rat mGlu2 (P31421 19-872): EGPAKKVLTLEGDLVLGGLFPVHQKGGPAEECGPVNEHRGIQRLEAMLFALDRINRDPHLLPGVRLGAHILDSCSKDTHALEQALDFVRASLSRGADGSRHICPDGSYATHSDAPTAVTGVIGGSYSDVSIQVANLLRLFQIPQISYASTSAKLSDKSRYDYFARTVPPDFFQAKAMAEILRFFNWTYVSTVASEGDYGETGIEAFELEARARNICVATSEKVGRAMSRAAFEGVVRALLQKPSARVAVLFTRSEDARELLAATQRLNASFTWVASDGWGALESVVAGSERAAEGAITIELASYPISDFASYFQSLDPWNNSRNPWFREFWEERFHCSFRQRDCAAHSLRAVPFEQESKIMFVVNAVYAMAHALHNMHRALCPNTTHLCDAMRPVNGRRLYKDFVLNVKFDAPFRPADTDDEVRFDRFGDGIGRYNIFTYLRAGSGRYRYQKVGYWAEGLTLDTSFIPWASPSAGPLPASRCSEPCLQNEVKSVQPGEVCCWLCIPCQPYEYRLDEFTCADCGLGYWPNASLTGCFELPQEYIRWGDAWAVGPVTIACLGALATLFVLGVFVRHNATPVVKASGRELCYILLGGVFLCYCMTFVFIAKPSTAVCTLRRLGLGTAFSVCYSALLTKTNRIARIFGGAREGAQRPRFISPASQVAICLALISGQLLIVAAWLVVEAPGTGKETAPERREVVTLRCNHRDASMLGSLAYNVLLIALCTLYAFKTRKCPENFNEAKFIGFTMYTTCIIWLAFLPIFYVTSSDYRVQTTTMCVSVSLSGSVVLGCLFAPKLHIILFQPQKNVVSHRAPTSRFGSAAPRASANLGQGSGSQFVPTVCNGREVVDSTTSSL

Row | Structure (SMILES) | IC50 | remaining activity at 30 µM [1] | rat mGlu2 Glu max [1]
1 | N#Cc1cc(-c2ccc(F)cc2)c(OCCCOc2ccc(C(F)(F)F)nc2)cn1 [Compound 66, 4-(4-fluorophenyl)-5-(3-((6-(trifluoromethyl)pyridin-3-yl)oxy)propoxy)picolinonitrile] | > 30 µM |  | 
2 | N#Cc1cc(-c2ccc(F)cc2)c(OCCCOc2ccnc(C(F)(F)F)c2)cn1 [Compound 67, 4-(4-fluorophenyl)-5-(3-((2-(trifluoromethyl)pyridin-4-yl)oxy)propoxy)picolinonitrile] | > 30 µM |  | 
3 | Cc1ccc(OCCCOc2cnc(C#N)cc2-c2ccc(F)cc2)cn1 [Compound 68, 4-(4-fluorophenyl)-5-(3-((6-methylpyridin-3-yl)oxy)propoxy)picolinonitrile] | > 10 µM | 29% | 
4 | C[C@@H]1CN(CCOc2cnc(C#N)cc2-c2ccc(F)cc2)C[C@H](C)O1 [Compound 70, 5-(2-((cis)-2,6-Dimethylmorpholino)ethoxy)-4-(4-fluorophenyl)picolinonitrile] | > 30 µM |  | 
5 | N#Cc1cc(-c2ccc(F)cc2)c(OCCCN2CCOCC2)cn1 [Compound 71, 4-(4-fluorophenyl)-5-(3-morpholinopropoxy)picolinonitrile] | > 30 µM |  | 
6 | CC1CN(CCCOc2cnc(C#N)cc2-c2ccc(F)cc2)CCO1 (stereo not drawn) [Compound 72, 4-(4-fluorophenyl)-5-(3-(2-methylmorpholino)propoxy)picolinonitrile] | > 30 µM |  | 
7 | CC1(C)CN(CCCOc2cnc(C#N)cc2-c2ccc(F)cc2)CCO1 [Compound 73, 5-(3-(2,2-dimethylmorpholino)propoxy)-4-(4-fluorophenyl)picolinonitrile] | > 30 µM |  | 
8 | N#Cc1cc(-c2ccc(F)cc2)c(OCCCN2CCC(F)(F)CC2)cn1 [Compound 74, 5-(3-(4,4-difluoropiperidin-1-yl)propoxy)-4-(4-fluorophenyl)picolinonitrile] | > 10 µM | 49.6% | 
9 | Cc1ncc(OCCOc2cnc(C#N)cc2-c2ccc(F)cc2)cn1 [Compound 75, 4-(4-Fluorophenyl)-5-(2-((2-methylpyrimidin-5-yl)oxy)ethoxy)picolinonitrile] | > 10 µM | 30.2% | 
10 | CN(CCOCc1cncc(F)c1)c1cnc(C#N)cc1-c1ccc(F)cc1 [Compound 76, 4-(4-Fluorophenyl)-5-((2-((5-fluoropyridin-3-yl)methoxy)ethyl)(methyl)amino)picolinonitrile] | > 10 µM | 33.3% | 
11 | NC(=O)c1cc(-c2ccc(F)cc2)c(N2CCC(Oc3ccc(C(F)(F)F)nc3)CC2)cn1 [Compound 77, 4-(4-Fluorophenyl)-5-(4-((6-(trifluoromethyl)pyridin-3-yl)oxy)piperidin-1-yl)picolinamide] | > 30 µM | 35.1% | 
12 | CC1(C)CN(Cc2cnc(C(N)=O)cc2-c2ccc(F)cc2)CCO1 [Compound 78, 5-((2,2-dimethylmorpholino)methyl)-4-(4-fluorophenyl)picolinamide] | 0.531 µM | -0.32% | 
13 | C[C@@H]1CN(Cc2cnc(C(N)=O)cc2-c2ccc(F)cc2)C[C@H](C)O1 [Compound 79, 5-(((cis)-2,6-dimethylmorpholino)methyl)-4-(4-fluorophenyl)picolinamide] | 0.987 µM | 0.52% | 
14 | Cn1cc(-c2cc(C(N)=O)ncc2OCc2cc(F)cc(F)c2)cn1 [Compound 80, 5-((3,5-difluorobenzyl)oxy)-4-(1-methyl-1H-pyrazol-4-yl)picolinamide] | 4.13 µM | -0.09% | 
15 | NC(=O)c1cc(-c2ccc(F)cc2)c(OCc2cccc(Br)c2F)cn1 [Compound 81, 5-((3-bromo-2-fluorobenzyl)oxy)-4-(4-fluorophenyl)picolinamide] | 1.53 µM | 2.19% | 
16 | Cn1cc(-c2cc(C(N)=O)ncc2OCc2cccnc2)cn1 [Compound 82, 4-(1-methyl-1H-pyrazol-4-yl)-5-(pyridin-3-ylmethoxy)picolinamide] | > 30 µM |  | 
17 | COc1ccc(-c2cc(C(N)=O)ncc2OCc2ccc(C)nc2)c(F)c1 [Compound 83, 4-(2-fluoro-4-methoxyphenyl)-5-((6-methylpyridin-3-yl)methoxy)picolinamide] | 0.216 µM | 1% | 
18 | Cc1ccc(COc2cnc(C(N)=O)cc2-c2ccc(C(F)(F)F)nc2)cn1 [Compound 84, 5′-((6-methylpyridin-3-yl)methoxy)-6-(trifluoromethyl)-[3,4′-bipyridine]-2′-carboxamide] | > 30 µM |  | 

The next lines start with the values.

Row | IC50 | remaining activity at 30 µM [1] | rat mGlu2 Glu max [1] | Structure (SMILES)
19 | > 10 µM | 46.7% |  | Cc1ccc(COc2cnc(C(N)=O)cc2-c2cnn(C)c2)cn1 [Compound 85, 4-(1-methyl-1H-pyrazol-4-yl)-5-((6-methylpyridin-3-yl)methoxy)picolinamide]
20 | 0.44 µM | 1.16% |  | COc1ccc(-c2cc(C(N)=O)ncc2OCc2ccc(C(F)(F)F)nc2)c(F)c1 [Compound 86, 4-(2-fluoro-4-methoxyphenyl)-5-((6-(trifluoromethyl)pyridin-3-yl)methoxy)picolinamide]
21 | > 10 µM |  | 29.69% | Cn1cc(-c2cc(C(N)=O)ncc2OCc2ccc(C(F)(F)F)nc2)cn1 [Compound 87, 4-(1-methyl-1H-pyrazol-4-y1)-5-((6-(trifluoromethyl)pyridin-3-yl)methoxy)picolinamide]
22 | 0.029 ± 0.005 µM | 1.65 ± 0.23% |  | COc1ccc(-c2cc(C(N)=O)ncc2OCc2ccnc(C)c2)c(F)c1 [Compound 88, 4-(2-fluoro-4-methoxyphenyl)-5-((2-methylpyridin-4-yl)methoxy)picolinamide]
23 | > 10 µM | 30.7% |  | Cc1cc(COc2cnc(C(N)=O)cc2-c2cnn(C)c2)ccn1 [Compound 89, 4-(1-methyl-1H-pyrazol-4-yl)-5-((2-methylpyridin-4-yl)methoxy)picolinamide]
24 | 2.03 µM | 0.21% |  | NC(=O)c1cc(-c2ccc(F)cc2)c(COc2cc(F)cc(F)c2)cn1 [Compound 90, 5-((3,5-difluorophenoxy)methyl)-4-(4-fluorophenyl)picolinamide]
25 | 0.639 µM | 0.51% |  | NC(=O)c1cc(-c2ccc(F)cc2)c(COc2ccc(C(F)(F)F)nc2)cn1 [Compound 91, 4-(4-fluorophenyl)-5-(((6-(trifluoromethyl)pyridin-3-yl)oxy)methyl)picolinamide]
26 | 1.66 µM | -2.16% |  | Cc1ccc(OCc2cnc(C(N)=O)cc2-c2ccc(F)cc2)cn1 [Compound 92, 4-(4-fluorophenyl)-5-(((6-methylpyridin-3-yl)oxy)methyl)picolinamide]
27 | 0.477 µM | 0.38% |  | NC(=O)c1cc(-c2ccc(F)cc2)c(COc2ccnc(C(F)(F)F)c2)cn1 [Compound 93, 4-(4-fluorophenyl)-5-(((2-(trifluoromethyl)pyridin-4-yl)oxy)methyl)picolinamide]
28 | > 10 µM | 49% |  | NC(=O)c1cc(-c2ccc(F)cc2)c(OCCN2CCOCC2)cn1 [Compound 94, 4-(4-fluorophenyl)-5-(2-morpholinoethoxy)picolinamide]
29 | > 10 µM | 22.8% |  | C[C@@H]1CN(CCOc2cnc(C(N)=O)cc2-c2ccc(F)cc2)C[C@H](C)O1 [Compound 95, 5-(2-((cis)-2,6-dimethylmorpholino)ethoxy)-4-(4-fluorophenyl)picolinamide]
30 | 3.27 µM | 7.38% |  | NC(=O)c1cc(-c2ccc(F)cc2)c(OCCCN2CCC(F)(F)CC2)cn1 [Compound 96, 5-(3-(4,4-difluoropiperidin-1-yl)propoxy)-4-(4-fluorophenyl)picolinamide]
31 | > 10 µM | 22% |  | CC1CN(CCCOc2cnc(C(N)=O)cc2-c2ccc(F)cc2)CCO1 (stereo not drawn) [Compound 97, 4-(4-fluorophenyl)-5-(3-(2-methylmorpholino)propoxy)picolinamide]
